# Experimental data taken from PubChem BioAssay AID2488 (The Scripps Research Institute Molecular Screening Center, 2010).
# The source made the active and inactive calls.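 How the source made its calls: active means IC50 at or below 10 µM; inactive means IC50 above 10 µM.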
# Target: HCV core protein (core106) dimerization, Hepatitis C virus
# Test: core106 dimer disruption concentration response – biochemical, TR-FRET, dose response, powder samples, late-stage follow-up (AID 2488)
# Conditions: GST/Flag-core106 dimerization, TR-FRET HTRF
row,SMILES,IC50
1,CC1=C(/C=C/C(C)=C/C=C/C(C)=C/C=C/C=C(C)/C=C/C=C(C)/C=C/C2=C(C)CCCC2(C)C)C(C)(C)CCC1,> 49.8 µM (inactive)
2,CCN(CC(=O)Nc1c(F)cccc1F)C(=O)/C=C/c1ccc2ccccc2n1,inactive
3,COc1ccc(NC(=O)CN(C)C(=O)c2cc3c(s2)CCC3)cc1,inactive
4,Cc1ccccc1N1C(=O)/C(=C/c2ccco2)C(=O)NC1=S,inactive
5,CCCCCC#CCC#CCC#CCC#CCCCC(=O)O,> 49.8 µM (inactive)
6,COCCN(C(=O)COC(=O)c1cc2c(s1)CCC2)c1c(N)n(Cc2ccccc2)c(=O)[nH]c1=O,inactive
7,O=C(/C=C/c1ccc(Br)o1)OCc1nc2ccsc2c(=O)[nH]1,> 49.8 µM (inactive)
8,Cc1ccc(Cc2c(C)nc3nc(SCC(=O)NCCCN4CCCCCC4)nn3c2C)cc1,3.67 µM
